Source: patent US7563467B2, “Use of an Opuntia ficus-indica extract and compounds isolated therefrom for protecting nerve cells” (Korea Institute of Science and Technology, priority 2001, dated 2009)
Converted amounts (≈) assume the structure as drawn. “Also recorded” adds a separate entry of the source. Marks after values point to notes of the source that are not given here.

Columns and labels:
[1] = tested on: primary cultured rat cerebrocortical neurons; test: Inhibition of hydrogen peroxide-induced neurotoxicity (LDH release); type: cell-based, Sprague-Dawley rat; details: for IC50: Cerebrocortical neuron
Method: (§1) Namely, the cerebral cortices of Sprague-Dawley rat embryos at 16-18 days of gestation were isolated, and meninges […] removed therefrom using a dissecting microscope. The tissue thus obtained was separated into single cells by trituration using a Pasteur pipette in a medium (MEM, Gibco BRL) containing 25 mM glucose, 5% FBS, 5% horse serum and 2 mM L-glutamine. […] A portion of the culture solution was replaced with a fresh culture media twice per week, and cultures were treated with 10 μM cytosine arabinoside for 24 to 72 hours at day 7 to 9 after planting to inhibit the growth of non-neuronal cells. The cultured cells at day 10 to 14 after planting were used in experiments. […] Data were calculated as percentages of the control LDH activity in the culture medium exposed to the respective oxidative insult in the absence of test principles. The inhibitory activity of a test sample for the oxidative nerve cell damage was calculated from the amount of released LDH relative to that of an unchanged control.

[2] = Superoxide anion radical scavenging activity (xanthine/xanthine oxidase, NBT); details: for Superoxide anion radical scavenging activity (IC50): isolated compounds
Method: Test sample solutions of various concentrations were each mixed with 0.1 mM xanthine, 0.1 mM EDTA, 50 μg/Ml bovine serum albumin (BSA), 25 mM nitroblue tetrazolium (NBT), 40 mM Na2CO3 and 7×10^−3 unit XOD to a final concentration of 200 μl and reacted at 25° C. for 20 min. 6.6 μl of 6 mM CuCl2 was added to the reaction mixture to stop the reaction, and the absorbance of the reaction mixture was measured at 560 nm to determine the amount of formazane.

[3] = tested on: primary cultured rat cerebrocortical neurons; test: Inhibition of xanthine/xanthine oxidase-induced neurotoxicity (LDH release); type: cell-based, Sprague-Dawley rat; details: for IC50: Cerebrocortical neuron, isolated compounds, rat cerebrocortical neurons, LDH
Method: as §1

[4] = DPPH radical scavenging activity (electron donating ability); details: for DPPH radical scavenging activity (IC50): isolated compounds
[5] = tested on: rat model of transient focal cerebral ischemic damage; test: Neurological score after middle cerebral artery occlusion; details: for Neurological score: 10 point means normal, average ± standard error
[6] = tested on: rat model of transient focal cerebral ischemic damage; test: Transient focal cerebral ischemia (middle cerebral artery occlusion and reperfusion), TTC infarction volume and swelling; type: in vivo, Sprague-Dawley rat; details: one day after occlusion; for Corrected total infarction volume: corrected for swelling; for Corrected total infarction volume / Swelling ratio: rat MCAO, 10 mg/kg intraperitoneally; for Infarction volume, cerebral cortex / Infarction volume, corpus striatum / Infarction volume, total: rat MCAO 120 min and reperfusion, 10 mg/kg intraperitoneally about 30 min after ischemia
[7] = tested on: cultured rat cerebral hippocampus cells and cortex cells; test: Inhibition of NMDA-induced neurotoxicity (LDH release); type: cell-based, SD rat; details: for inhibition at 9 µg/mL / inhibition at 30 µg/mL: Rattus norvegicus, 100 μM NMDA; for inhibition at 9 µg/mL: 9 μg/Ml; for inhibition at 30 µg/mL: 30 μg/Ml
Method: The hippocampus and cortex were extracted from the cerebral tissue of 17-day old fetus of a pregnant SD rat using a microscope. The extracted hippocampus and cortex were each separated into discrete single cells using a pipette, and the cells obtained therefrom by centrifuging were inoculated into a 96-well plate coated with poly-L-lysine. […] After 72 hours incubation, the medium was replaced with the same medium but lacking glutamate, and the cells were further incubated. […] The cultured cells prepared in Reference Example 6 were treated with 100 μM NMDA (Sigma) for 2 hours to induce cerebral cell damage, with or without the presence of a fixed amount of a test sample. After 24 hours, the amount of LDH released into the culture solution was measured using an LDH measuring kit (Boehringer Mannheim).

[8] = tested on: cultured rat cerebral hippocampus cells and cortex cells; test: Inhibition of growth factor withdrawal-induced neurotoxicity (LDH release); type: cell-based, SD rat
Method: The hippocampus and cortex were extracted from the cerebral tissue of 17-day old fetus of a pregnant SD rat using a microscope. The extracted hippocampus and cortex were each separated into discrete single cells using a pipette, and the cells obtained therefrom by centrifuging were inoculated into a 96-well plate coated with poly-L-lysine. […] After 72 hours incubation, the medium was replaced with the same medium but lacking glutamate, and the cells were further incubated. […] The cultured cells prepared in Reference Example 6 were cultured in […] containing 2% B27 supplementary nutrient, and then, the culture solution was replaced with the same […] but lacking B27 supplementary nutrient to induce cell death caused by undernutrition. After 24 hours, the amount of LDH released by cell necrosis was measured using an LDH measuring kit (Boehringer Mannheim) to quantify the extent of cell death.

[9] = isolated compounds, rat cerebrocortical neurons, LDH
[10] = 30 min after occlusion of middle cerebral artery
[11] = 24 hour after occlusion of middle cerebral artery, 10 mg/kg intraperitoneally

SMILES | IC50 [1, 9] | Superoxide anion radical scavenging activity (IC50) [2] | IC50 [3] | DPPH radical scavenging activity (IC50) [4] | Inhibition of hydrogen peroxide-induced neurotoxicity (in words) [1] | Superoxide anion radical scavenging activity (in words) [2] | Inhibition of xanthine/xanthine oxidase-induced neurotoxicity (in words) [3] | Neurological score [5, 10] | Neurological score [5, 11] | DPPH radical scavenging activity (in words) [4] | Corrected total infarction volume [6] | Infarction volume, cerebral cortex [6] | Infarction volume, corpus striatum [6] | Infarction volume, total [6] | Swelling ratio [6] | Inhibition of NMDA-induced neurotoxicity (in words) [7] | inhibition at 9 µg/mL [7] | inhibition at 30 µg/mL [7] | also measured
O=C1c2c(O)cc(O)cc2O[C@H](c2ccc(O)cc2)[C@H]1O [Dihydrokaempferol, dihydrokaempferol] | > 300 µg/mL | >50 µg/mL | > 300 µg/mL | >50 µg/mL |  |  |  |  |  |  |  |  |  |  |  |  |  |  | 
O=C1c2c(O)cc(O)cc2O[C@H](c2ccc(O)c(O)c2)[C@H]1O [Dihydroquercetin, dihydroquercetin] | 7.8 µg/mL (≈ 25.6 µM) | 2.48 µg/mL | 16.6 µg/mL (≈ 54.6 µM) | 4.49 µg/mL | strongly inhibit | potent | strongly inhibit | 2.33 ± 0.16 | 3.00 ± 0.33 | potent | 130.7 ± 13.1 mm^3 | 169.4 ± 12.7 mm^3 | 30.1 ± 4.3 mm^3 | 199.5 ± 16.5 mm^3 | 11.9 ± 0.5% | inhibit | 33% | 47% | 
COc1c(-c2ccc(O)cc2)oc2cc(O)cc(O)c2c1=O [Kaempferol 3-methyl ether, kaempferol 3-methyl ether] |  | >50 µg/mL |  | >50 µg/mL |  |  |  |  |  |  |  |  |  |  |  |  |  |  | Inhibition of hydrogen peroxide-induced neurotoxicity (IC50) [1, 9]: >300 µg/mL
O=c1c(O)c(-c2ccc(O)cc2)oc2cc(O)cc(O)c12 [Kaempferol, kaempferol] | 29.7 µg/mL (≈ 104 µM) | >50 µg/mL | 24.9 µg/mL (≈ 87 µM) | >50 µg/mL | strongly inhibit |  | strongly inhibit |  |  |  |  |  |  |  |  |  |  |  | 
COc1c(-c2ccc(O)c(O)c2)oc2cc(O)cc(O)c2c1=O [Quercetin 3-methyl ether, quercetin 3-methyl ether] | 0.6 µg/mL (≈ 1.9 µM) | 4.77 µg/mL | 0.65 µg/mL (≈ 2.06 µM) | 3.76 µg/mL | strongly inhibit; also recorded: highest inhibitory activity | potent | strongly inhibit; also recorded: highest inhibitory activity | 2.36 ± 0.15 | 4.81 ± 0.44 | potent | 81.6 ± 17.8* mm^3 | 81.2 ± 20.8* mm^3 | 28.9 ± 3.1 mm^3 | 110.1 ± 22.9* mm^3 | 5.8 ± 0.7 % | inhibit | 21% | 54% | Neurological score compared with the control (in words) [5]: significantly higher; Inhibition of growth factor withdrawal-induced neurotoxicity (in words) [8]: inhibited; inhibition at 9 µg/mL ([8]; Rattus norvegicus, 9 μg/Ml): 31%; inhibition at 30 µg/mL ([8]; Rattus norvegicus, 30 μg/Ml): 86%
O=c1c(O)c(-c2ccc(O)c(O)c2)oc2cc(O)cc(O)c12 [Quercetin, quercetin] | 4.1 µg/mL (≈ 13.6 µM) | >50 µg/mL | 5.5 µg/mL (≈ 18.2 µM) | 2.89 µg/mL | strongly inhibit |  | strongly inhibit | 2.44 ± 0.24 | 4.56 ± 0.53 | potent | 110.6 ± 15.8 mm^3 | 130.5 ± 18.6 mm^3 | 30.1 ± 4.9 mm^3 | 161.1 ± 21.4 mm^3 | 9.1 ± 1.1% |  |  |  | 
